Pest or weed control data for 4 compounds are collected here from patent US10375956B2, “Herbicidally active 2-(substituted-phenyl)-cyclopentane-1,3-dione compounds and derivatives thereof” (Syngenta Limited, priority 2013, dated 2019).

Assay type in all cases: in vivo
For assay [1], the system named is Setaria faberi (SETFA). As to the kind of experiment: Test 1 glasshouse assay, post-emergence herbicidal activity. To be noted: 312 h, post-emergence (Example 1B Table 1), after 13 days, read-out: Percentage phytotoxicity SETFA. Put shortly: (§1)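 Plants sprayed post-emergence after 8 days' growth with active ingredient in acetone/water (50:50) plus 0.5% Tween 20; glasshouse at 24/16° C day/night, 14 h light, 65% humidity. Visual percentage phytotoxicity scored 13 days later (100% = total damage, 0% = none).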

For assay [2], the system named is Zea mays (ZEAMX, corn/maize). Described as above. The conditions noted are these: 312 h, post-emergence (Example 1B Table 1), after 13 days, read-out: Percentage phytotoxicity ZEAMX. In outline:
as §1

Assay [3] has as its system Alopecurus myosuroides (ALOMY). The description is as above. The conditions noted are these: 312 h, after 13 days, read-out: Percentage phytotoxicity ALOMY. In outline:
(§2)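 Plants sprayed 8 days after sowing with active ingredient in acetone/water (50:50) containing 0.5% Tween 20, grown in glasshouse at 24/16°C day/night, 14 h light, 65% humidity. Phytotoxicity scored visually after 13 days as percentage damage (100% = total damage; 0% = none).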

Assay [4] concerns Echinochloa crus-galli (ECHCG). The description is as above. To be noted: 312 h, after 13 days, read-out: Percentage phytotoxicity ECHCG. Put shortly: as §2
Assay [5] relates to Setaria faberi (SETFA). The assay is described as follows: Test 2 glasshouse assay (IF50 formulation, X-77), pre-emergence herbicidal activity. To be noted: 480 h, 250 g/ha, 20DAA, read-out: Percentage phytotoxicity SETFA. How it is done: (§3) Seeds of a variety of monocotyledonous and dicotyledonous test plants are sown in standard soil in pots. The plants are cultivated for one day (for pre-emergence) or for about 12 days (for post-emergence) under controlled conditions in a glasshouse (warm climate species at 24/18° C., cool climate species at 20/16° C., both at day/night; 16 hours light; 65% humidity).
(§4) An “instant formulation”, known as the “IF50”, containing 50 g/liter (i.e. 5% w/v) of the “technical” (i.e. unformulated) active ingredient is prepared by dissolving the active ingredient in a mixture of organic solvents and emulsifier, details of which are provided in the Table below. This IF50 is then mixed with a small, variable amount of acetone to aid dissolution, before addition of a 0.2% v/v aqueous solution of the adjuvant X-77 (which is a mixture of alkyl aryl polyoxyethylene glycols and free fatty acids in isopropanol, CAS Registry number 11097-66-8), as the aqueous diluent, to form an aqueous spray solution which contains a predetermined concentration of the active ingredient (which varies depending on the application rate of the active ingredient to the plants) and 0.2% v/v of the adjuvant X-77. This aqueous spray solution is then sprayed onto the plants, after one day's cultivation (for pre-emergence), or after about 12 days' cultivation (range=10-13 days) (for post-emergence).
(§5) The test plants are then grown on, in a glasshouse (greenhouse) under controlled conditions (warm climate species at 24/18° C., cool climate species at 20/16° C., both at day/night; 16 hours light; 65% humidity) and are watered twice daily. 15 days after application of the test herbicide (15DAA) (for post-emergence), and 20 days after application of the test herbicide (20DAA) (for pre-emergence), the test plants are evaluated visually, and an assessed percentage phytotoxicity score is given for each herbicidal application on each plant species (with 100%=total damage to plant; 0%=no damage to plant).
(§6) Warm climate (“warm season”) grassy monocotyledonous weeds: Setaria faberi (SETFA), Panicum miliaceum (PANMI), Sorghum vulgare Pers. (SORVU) (or Sorghum bicolor (L) Moench ssp. Bicolor), Digitaria sanguinalis (DIGSA), Echinochloa crus-galli (ECHCG), and Brachiaria plantaginea (BRAPL).

The test system of assay [6] is Sorghum vulgare Pers. (SORVU). The assay is described as above. To be noted: Sorghum bicolor, 480 h, 250 g/ha, 20DAA, read-out: Percentage phytotoxicity SORVU. How it is done:
as §3, §4, §5, §6

Assay [7] deals with Panicum miliaceum (PANMI). The description is as above. The conditions noted are these: 480 h, 250 g/ha, 20DAA, read-out: Percentage phytotoxicity PANMI. Here is the method: as §3, §4, §5, §6
Assay [8] concerns Digitaria sanguinalis (DIGSA). Described as above. To be noted: 480 h, 250 g/ha, 20DAA, read-out: Percentage phytotoxicity DIGSA. Here is the method: as §3, §4, §5, §6
The test system of assay [9] is Echinochloa crus-galli (ECHCG). Described as above. The conditions noted are these: 480 h, 250 g/ha, 20DAA, read-out: Percentage phytotoxicity ECHCG. Here is the method: as §3, §4, §5, §6
For assay [10], the system named is Alopecurus myosuroides (ALOMY). The assay is described as follows: Test 2 glasshouse assay (IF50 formulation, X-77), post-emergence herbicidal activity. The conditions noted are these: 360 h, 15 DAA, visual score, read-out: Post-emergence herbicidal activity (percentage phytotoxicity) ALOMY; for pest or weed control at 30 g/ha: application rate 30 g/ha; for pest or weed control at 250 g/ha: application rate 250 g/ha. How it is done:
as §3, §4, §5
(§7) Cool climate (“cool season”) grassy monocotyledonous weeds: Alopecurus myosuroides (ALOMY), Avena fatua (AVEFA), Lolium perenne (LOLPE).

The test system of a further assay is Lolium perenne (LOLPE). The assay is described as above. To be noted: 360 h, 15 DAA, visual score, read-out: Post-emergence herbicidal activity (percentage phytotoxicity) LOLPE; for pest or weed control at 30 g/ha: application rate 30 g/ha; for pest or weed control at 250 g/ha: application rate 250 g/ha. Here is the method:
as §3, §4, §5, §7

The subject of another assay is Avena fatua (AVEFA). The assay is described as above. The conditions noted are these: 360 h, 15 DAA, visual score, read-out: Post-emergence herbicidal activity (percentage phytotoxicity) AVEFA; for pest or weed control at 30 g/ha: application rate 30 g/ha; for pest or weed control at 250 g/ha: application rate 250 g/ha. Here is the method: as §3, §4, §5, §7
Assay [11] relates to Brachiaria plantaginea (BRAPL). The assay is described as follows: Test 2 glasshouse assay (IF50 formulation, X-77), pre-emergence herbicidal activity. The conditions noted are these: Urochloa plantaginea, 480 h, 250 g/ha, 20DAA, read-out: Percentage phytotoxicity BRAPL. How it is done:
as §3, §4, §5, §6

Where [12] appears, read: post-emergence (Example 1B Table 1).
Where [13] appears, read: post-emergence (Example 1B Table 2).

`C#CCC1CC(=O)C(c2c(F)cc(-c3ccc(Cl)cn3)cc2Cl)C1=O` (centres unmarked) [Compound A8]: the pest or weed control at 30 g/ha in the assay on Setaria faberi (SETFA) [1] stood at 100%; in assay [2], 100%; in assay [3] (setting [12]), 100%; in assay [4] (setting [12]), 100%; in assay [10], 50%; in the assay on Lolium perenne (LOLPE), 40%. Further, the pest or weed control at 30 g/ha with Avena fatua (AVEFA) was determined as 50%. The pest or weed control at 250 g/ha (in the assay with Setaria faberi (SETFA) [1]; in assay [2]; in assay [3] (setting [12]); in assay [3] (setting [13]); in [4] (setting [12]); in assay [4] (setting [13])) was 100% throughout. The pest or weed control at 250 g/ha worked out at 70% with Setaria faberi (SETFA) [5]; 80% in assay [6]; 90% in assay [7]; 80% in assay [8]; 60% in assay [9]; 80% in [10]. Also, the figures for the pest or weed control at 250 g/ha with Lolium perenne (LOLPE) and in the assay on Avena fatua (AVEFA) were 60% and 90%, respectively. Further, the pest or weed control at 62.5 g/ha in [3] (setting [13]) stood at 80%; in [4] (setting [13]) it was 100%.

For `C#CCC1CC(=O)C(c2c(Cl)cc(-c3ccc(Cl)cn3)cc2OC)C1=O` (centres unmarked) [Compound A10], the pest or weed control at 30 g/ha with Setaria faberi (SETFA) [1] is 100%; in assay [2], 100%; in assay [3] (setting [12]), 90%; in assay [4] (setting [12]), 100%; in assay [10] it was 50%; in the assay with Lolium perenne (LOLPE), 30%. For the same compound, in the assay with Avena fatua (AVEFA), the pest or weed control at 30 g/ha came to 60%. Further, the pest or weed control at 250 g/ha (with Setaria faberi (SETFA) [1]; in assay [2]; in assay [3] (setting [12]); in assay [3] (setting [13]); in [4] (setting [12]); in [4] (setting [13])) was 100% in each case. Moreover, the pest or weed control at 250 g/ha (in the assay with Setaria faberi (SETFA) [5]; in assay [6]; in assay [7]; in [8]; in assay [9]; in assay [10]) was 100% throughout. In addition, the pest or weed control at 250 g/ha was 90% in the assay with Lolium perenne (LOLPE) and 100% in the assay with Avena fatua (AVEFA). Further, the pest or weed control at 62.5 g/ha in assay [3] (setting [13]) and in [4] (setting [13]) was 100% throughout.

As to `C#CCC1CC(=O)C(c2cc(-c3ccc(Cl)cc3Cl)ccc2C)C1=O` (centres unmarked) [Compound A15], the pest or weed control at 250 g/ha in the assay on Setaria faberi (SETFA) [1] stood at 70%; in assay [2] it was 80%; in assay [3] (setting [12]) it was 10%; in [4] (setting [12]), 70%; in the assay on Setaria faberi (SETFA) [5] it was 20%; in assay [6] it was 30%. For the same compound, the pest or weed control at 250 g/ha came to 20% in assay [7]; 50% in assay [8]; 10% in assay [9]; 40% in assay [10]; 20% in the assay with Lolium perenne (LOLPE); 10% in the assay on Avena fatua (AVEFA).

In the case of `C#CCC1CC(=O)C(c2c(CC)cc(C)cc2CC)C1=O` (centres unmarked) [Compound A25, 2-(2,6-diethyl-4-methyl-phenyl)-4-(prop-2-ynyl)-cyclopentane-1,3-dione], the pest or weed control at 62.5 g/ha in assay [3] (setting [13]) is 90%; in [4] (setting [13]), 100%. Further, the pest or weed control at 250 g/ha in [3] (setting [13]) turned out to be 100%; in assay [4] (setting [13]) it was 100%; with Setaria faberi (SETFA) [5] it was 80%; in [11], 100%; in [6], 90%; in assay [7] it was 90%. The pest or weed control at 250 g/ha in assay [8] and in assay [9] was 100% throughout. In addition, the pest or weed control at 30 g/ha in assay [10] amounted to 50%; with Lolium perenne (LOLPE), 90%; in the assay on Avena fatua (AVEFA), 80%. Besides, the pest or weed control at 125 g/ha was found to be 80% in [10] (application rate 125 g/ha), 100% with Lolium perenne (LOLPE) (application rate 125 g/ha) and 100% in the assay with Avena fatua (AVEFA) (application rate 125 g/ha).
